Patent EP4772514A1, “MACROCYCLIC COMPOUNDS, PREPARATION METHOD THEREFOR, AND USE THEREOF” (Genfleet Therapeutics (Shanghai) Inc., priority 2023, dated 2025)
Counter-ions that a name gives are not always drawn. Like-named read-outs stand apart in the source and are kept apart here.

Legend:
NCI-H441 cells = assay: 3D cell proliferation assay (CellTiter Glo-3D) in NCI-H441 cells; type: cell-based; conditions: NCI-H441, human lung cancer cell strain, KRAS G12V mutation, 3D culture, 2% FBS, 5 days, read-out: H441 AP IC50
Description: MIA PaCa-2 cells were purchased from ATCC, Cat. No. CRL-1420; AsPC-1 cells were purchased from ATCC, Cat. No. CRL-1682; NCI-H441 cells were purchased from ATCC, Cat. No. HTB-174; NCI-H1975 cells were purchased from ATCC, Cat. No. CRL-5908; DMEM medium was purchased from Gibco, Cat. No. 11995-065; RPMI-1640 medium was purchased from Gibco, Cat. No. 11875-093; FBS was purchased from Gibco, Cat. No. 10099-141C; penicillin/streptomycin double-antibiotic solution (PS) was purchased from Gibco, Cat. No. 15140-122; Horse serum was purchased from Gibco, Cat. No. 16050130; trypsin (containing EDTA) was purchased from Gibco, Cat. No. 25200-072; DMSO was purchased from VWRAMRESCO, Cat. No. 0231-500ML; 384-well cell culture plates were purchased from Corning, Cat. No. 3830; white-bottomed, opaque 384-well assay plates were purchased from Corning, Cat. No. 3570; CellTiter Glo-3D kit was purchased from Promega, Cat. No. G9683; cell counter was purchased from CHEMOMETEC, model: NC-200; microplate reader was purchased from PerkinElmer, model: EnVision.
MIA PaCa-2, a human pancreatic cancer cell strain endogenously containing a KRAS^G12Cmutation, was cultured in a complete medium containing DMEM + 10% FBS + 2.5% Horse serum + 1% PS. AsPC-1, a human pancreatic cancer cell strain endogenously containing a KRAS^G12D mutation, was cultured in a complete medium containing RPMI-1640 + 10% FBS + 1% PS. NCI-H441 cells, a human lung cancer cell strain endogenously containing a KRAS^G12V mutation, were cultured in a complete medium containing RPMI-1640 + 10% FBS + 1% PS. NCI-H1975, a KRAS wild-type human lung cancer cell strain whose cell proliferation […], was cultured in a complete medium containing RPMI-1640 + 10% FBS + 1% PS.
The cells were digested with trypsin (containing EDTA), collected in their respective low-serum complete media containing 2% FBS (for MIA Paca-2 cell culture: DMEM + 2% FBS + 0.5% Horse serum + 1% PS), and counted. After the cell density was adjusted as required, MIA PaCa-2 cells (200 cells/well), AsPC-1 cells (800 cells/well), NCI-H441 cells (800 cells/well), or NCI-H1975 cells (400 cells/well) were seeded into a 384-well cell culture plate, with the volume of the medium in each well being 45 µL. The cell culture plate was incubated in an incubator at 37 °C with 5% CO2 overnight. A series of 3.16-fold gradient dilutions of a 1000× compound stock solution were prepared with DMSO, and then diluted 100-fold with the complete medium containing 2% FBS described above to give 10× compound stock solutions. On the day after cell seeding, 5 µL of the 10× compound stock solution was added to each cell culture well. As a result, the final concentration of the compound in the cell culture well became 1×, and the DMSO content in the well was 0.1%. In addition to the compound-treated wells described above, cell-containing DMSO control wells (with 5 µL of the complete medium containing 1% DMSO added to each well) and cell-free medium control wells (containing 50 µL of the complete medium with 2% FBS) were also set. The culture plate was incubated in an incubator at 37 °C with 5% CO2 for another 5 days, and then 30 µL of CellTiter-Glo working solution was added to each well. The mixture was well mixed, incubated for 30 min, left to stand at room temperature for 30 min, and then transferred to a white-bottomed, opaque 384-well assay plate at 40 µL/well. The chemiluminescence values (RLU) were measured using a microplate reader, and the cell proliferation inhibition rate for each well was calculated: IR(%) = (RLUDMSO - RLUcompound)/(RLUDMSO - RLUblank) × 100%, where RLUDMSO is the average RLU signal value from the DMSO control well samples, RLUblank is the average RLU signal value from the medium control well samples, and RLUcompound is the RLU signal value from the compound-treated well samples. […]

p-ERK = assay: Cell p-ERK assay (HTRF, Advance ERK phospho-T202/Y204 kit) in NCI-H441 cells; type: cell-based; conditions: NCI-H441, human non-small cell lung cancer cell strain, KRAS G12V mutation, 3 h compound incubation
Method: AsPC-1 cells were purchased from ATCC, Cat. No. CRL-1682; NCI-H441 cells were purchased from ATCC, Cat. No. HTB-174; RPMI-1640 medium was purchased from Gibco, Cat. No. 11875-093; FBS was purchased from Gibco, Cat. No. 10099-141C; penicillin/streptomycin double-antibiotic solution (PS) was purchased from Gibco, Cat. No. 15140-122; trypsin (containing EDTA) was purchased from Gibco, Cat. No. 25200-072; DMSO was purchased from VWRAMRESCO, Cat. No. 0231-500ML; 96-well cell culture plates were purchased from Corning, Cat. No. 3599; white-bottomed, opaque 96-well plates were purchased from Cisbio, Cat. No. 66PL96025; Advance ERK phospho-T202/Y204 kit was purchased from Cisbio, Cat. No. 64AERPEH; cell counter was purchased from CHEMOMETEC, model: NC-200; microplate reader was purchased from PerkinElmer, model: EnVision.
AsPC-1, a human pancreatic cancer cell strain endogenously containing a KRAS^G12D mutation, was cultured in a complete medium containing RPMI-1640 + 10% FBS + 1% PS. NCI-H441, a human non-small cell lung cancer cell strain endogenously containing a KRAS^G12V mutation, was cultured in a complete medium containing RPMI-1640 + 10% FBS + 1% PS.
The cells were digested with trypsin (containing EDTA), collected in their corresponding complete media, and counted. The density of the cell suspensions was adjusted with their corresponding complete media, and AsPC-1 cells (10000 cells/well) or NCI-H441 cells (20000 cells/well) were seeded into a 96-well cell culture plate, with the volume of the medium in each well being 80 µL. The cell culture plate was incubated in an incubator at 37 °C with 5% CO2 overnight. A series of 3.16-fold gradient dilutions of a 1000× compound stock solution were prepared with DMSO, and then diluted 200-fold with the complete medium described above to give 5× compound stock solutions. On the day after cell seeding, 20 µL of the 5× compound stock solution was added to each cell culture well. As a result, the final concentration of the compound in the cell culture well became 1×, and the DMSO content in the well was 0.1%. In addition to the compound-treated wells described above, cell-containing DMSO control wells were also set. A complete medium containing 0.5% DMSO was added at 20 µL/well. After the mixture was well mixed, the culture plate was incubated in the incubator at 37 °C with 5% CO2 for another 3 h. The medium was then removed from the culture wells, and 50 µL of cell lysis buffer (from Advance ERK phospho-T202/Y204 kit) was added to each well. The mixture was well mixed, incubated for 30 min, and then transferred to a white-bottomed, opaque 96-well assay plate at 16 µL/well, and separately, 16 µL of cell lysis buffer was added to additional wells (serving as blank wells) in the assay plate. After the transfer was completed, 4 µL of p-ERK HTRF antibody mixture (from Advance ERK phospho-T202/Y204 kit) was added to each well of the assay plate, followed by a 4-hour incubation. The HTRF signal values (RLU) were then measured using a microplate reader, and the inhibition rate of the compound against p-ERK levels was calculated as follows: IR(%) = (RLUDMSO - RLUcompound)/(RLUDMSO - RLUblank) × 100%, where RLUDMSO is the average HTRF signal value from the DMSO control well samples, RLU is the average HTRF signal value from the blank well samples, and RLUcompound is the HTRF signal value from the compound-treated well samples. Using an XLfit software, the IR(%) values were plotted against the logarithm of the compound concentrations, and the dose-response curves were fitted using the four-parameter method to calculate the IC50 values.

Compound | IC50 (NCI-H441 cells; Homo sapiens, NCI-H441, 120 h) [µM] | IC50 (p-ERK; Homo sapiens, NCI-H441, 3 h) [µM] | IC50 (NCI-H441 cells) [µM] | IC50 (p-ERK) [µM] | IC50 (NCI-H441 cells; 120 h) [µM]
CCn1nc2c(c1-c1cc(C#CCN3CCS(=O)(=O)CC3)cnc1[C@H](C)OC)CC(C)(C)COC(=O)[C@@H]1CCCN(N1)C(=O)[C@@H](NC(=O)[C@H](C(C)C)N(C)c1ccccc1)Cc1nc(cs1)/C=C/2 (atropisomer, axis not shown; (Ra)) [Compound Z51, (2S)-N-((4^2Z,8^3S,2E,6S)-(Ra)-1^5-(5-(3-(1,1-dioxidothiomorpholine)prop-1-yn-1-yl)-2-((S)-1-methoxyethyl)pyridin-3-yl)-1^1-ethyl-12,12-dimethyl-7,9-dioxo-8^1,8^2,8^3,8^4,8^5,8^6-hexahydro-1^1H-10-oxa-4(4,2)-thiazola-8(1,3)-pyridazina-1(3,4)-pyrazolecyclotridec-2-en-6-yl)-3-methyl-2-(methyl(phenyl)amino)butanamide] | 0.00346 | 0.00302 | – | – | –
CO[C@@H](C)c1ncc(C#CCN2CCS(=O)(=O)CC2)cc1-c1c2c(nn1C(C)C)/C=C/c1csc(n1)C[C@H](NC(=O)[C@H](Cc1cccc3ncccc13)C(C)C)C(=O)N1CCC[C@H](N1)C(=O)OCC(C)(C)C2 [Compound Z44-2, (2R)-N-((4^2Z,8^3S,2E,6S)-1^5-(5-(3-(1,1-dioxidothiomorpholino)prop-1-yn-1-yl)-2-((S)-1-methoxyethyl)pyridin-3-yl)-1^1-isopropyl-12,12-dimethyl-7,9-dioxo-8^1,8^2,8^3,8^4,8^5,8^6-hexahydro-1^1H-10-oxa-4(4,2)-thiazola-8(1,3)-pyridazina-1(3,4)-pyrazolocyclotridec-2-en-6-yl)-3-methyl-2-(quinolin-5-ylmethyl)butanamide formate] | – | – | 0.0763 | 0.0154 | –
CCn1c(-c2cc(N3CCN(C)CC3)cnc2[C@H](C)OC)c2c3cc(ccc31)NC(=O)OC[C@H](NC(=O)[C@H]1[C@H](C)[C@@H]1C)C(=O)N1CCC[C@H](N1)C(=O)OCC(C)(C)C2 (single isomer, unassigned) [Compound Z2-1] | 0.374 | 0.239 | – | – | –
CCn1nc2c(c1-c1cc(C#CCN3CCS(=O)(=O)CC3)cnc1[C@H](C)OC)CC(C)(C)COC(=O)[C@@H]1CCCN(N1)C(=O)[C@@H](NC(=O)[C@H](C(C)C)N1CCC(C)C1=O)Cc1nc(cs1)/C=C/2 (atropisomer, axis not shown; (Ra)) [Compound Z116, (2S)-N-((4^2Z,8^3S,2E,6S)-(Ra)-1^5-(5-(3-(1,1-dioxothiomorpholinyl)prop-1-yn-1-yl)-2-((S)-1-methoxyethyl)pyridin-3-yl)-1^1-ethyl-12,12-dimethyl-7,9-dioxo-8^1,8^2,8^1,8^4,8^5,8^6-hexahydro-1^1H-10-oxo-4 (4,2)-thiazola-8(1,3)-pyridazina-1(3,4)-pyrrolacyclotridecaphan-2-en-6-yl)-3-methyl-2-(3-methyl-2-oxopyrrolidin-1-yl)butanamide] | 0.386 | 0.115 | – | – | –
CCn1nc2c(c1-c1cc(C#CCN3CCS(=O)(=O)CC3)cnc1C(C)OC)CC(C)(C)COC(=O)C1CCCN(N1)C(=O)C(NC(=O)C(C(C)C)N(C)C(=O)Cn1ccc3ccccc31)Cc1nc(cs1)C=C2 (single isomer, unassigned) [Compound Z54-1] | 0.24 | 0.15 | – | – | –
CCn1nc2c(c1-c1cc(C#CCN3CCS(=O)(=O)CC3)cnc1[C@H](C)OC)CC(C)(C)COC(=O)[C@@H]1CCCN(N1)C(=O)[C@@H](NC(=O)[C@@H]1CCCN1Cc1ccccc1)Cc1nc(cs1)/C=C/2 (atropisomer, axis not shown; (Ra)) [Compound Z48, (2S)-1-benzyl-N-((4^2Z,8^3S,2E,6S)-(Ra)-1^5-(5-(3-(1,1-dioxothiomorpholine)-1-prop-1-yn-1-yl)-2-((S)-1-methoxyethyl)pyridin-3-yl)-1^1-ethyl-12,12-dimethyl-7,9-dioxo-8^1,8^2,8^3,8^4,8^5,8^6-hexahydro-1^1H-10-oxa-4(4,2)-thiazola-8(1,3)-pyridazina-1(3,4)-pyrrolacyclotridecaphan-2-en-6-yl)pyrrolidine-2-carboxamide] | – | – | – | 0.0786 | 0.123
CCn1nc2c(c1-c1cc(C#CCN3CCS(=O)(=O)CC3)cnc1[C@H](C)OC)CC(C)(C)COC(=O)[C@@H]1CCCN(N1)C(=O)[C@@H](NC(=O)[C@@H](NC(=O)OC(C)(C)C)C(C)C)Cc1nc(cs1)/C=C/2 (atropisomer, axis not shown; (Ra)) [Compound Z53] | 0.115 | 0.182 | – | – | –
